According to patent US9828326B2, “Amooranin compounds and analogs thereof and related methods of use” (priority 2011, dated 2017):
Marks after values point to notes of the source that are not given here.

Columns and labels:
breast cancer cells = settings: cited from earlier work
[1] = tested on: proliferating cell nuclear antigen (PCNA); assay: Immunohistochemical detection of PCNA in tumor sections (cell proliferation); format: in vivo, Sprague-Dawley rats
Protocol: (§1) Serial sections of tumor tissue were used processed for immunohistochemical analysis. Cell proliferation was studied by immunohistochemical detection of proliferating cell nuclear antigen (PCNA) as a proliferation marker. The analysis of apoptotic cells in tumor sections were performed by using TdT-FragEL™ DNA fragmentation detection assay kit (EMD Biosciences, Inc., San Diego, Calif.). The protein expression of Bax (apoptosis inducer),Bcl-2 (apoptosis repressor), ER-a, ER-β, cyclin D1 and β-catenin were determined. The immunohistochemical slides were visualized under a light microscope (BX43, Olympus, Center Valley, Pa.) and at least 1,000 cells/animal were analyzed. Results were expressed as percentage of immunopositive cells.

[2] = tested on: apoptotic cells in tumor sections; assay: TdT-FragEL DNA fragmentation detection assay in tumor sections (apoptosis); format: in vivo, Sprague-Dawley rats
Protocol: as §1

Bax [3] = assay: Immunohistochemistry of Bax in mammary tumors; format: in vivo, Sprague-Dawley rats
Protocol: as §1

Bcl-2 [4] = assay: Immunohistochemistry of Bcl-2 in mammary tumors; format: in vivo, Sprague-Dawley rats
Protocol: as §1

Bax [5] = assay: Western blot of Bax in tumor tissue; format: in vivo, Sprague-Dawley rats; settings: all doses (0.8, 1.2, 1.6 mg/kg) + DMBA
Protocol: (§2) Total proteins were extracted from tumor tissues with lysis buffer (containing 20 mM HEPES, 350 mM NaCl, […], 1 mM MgCh, 20% glycerol, and 1% NP-40), boiled and separated by 4-20% gradient sodium dodecyl sulfate-polyacrylamide gel electrophoresis. The proteins were transferred to polyvinylidene fluoride membranes (Santa Cruz Biotechnology Inc., Santa Cruz, Calif.), and reacted with primary mouse monoclonal antibodies to Bax, Bcl-2, Bel-XL and β-Actin (dilution 1:200) and subsequently with anti-mouse secondary antibodies (dilution 1:1,000) conjugated to horseradish peroxidase. The immunoreactions were detected by an enhanced chemiluminescence detection kit (Them10 Scientific, Rockford, Ill.) and relative intensities of bands on blots were quantitated by autoluminography using a Kodak digital imaging system. Normalization of Western blot was ensured by β-Actin.

Bcl-2 [6] = assay: Western blot of Bcl-2 in tumor tissue; format: in vivo, Sprague-Dawley rats
Protocol: as §2

Bax [7] = assay: RT-PCR of tumor samples, BAX; format: in vivo, Sprague-Dawley rats; settings: tumors of AMR-Me + DMBA rats
Protocol: (§3) Total RNA from 20 mg of tumor sample was extracted using Quick RNA® mini Prep kit following the manufacturer's instructions. The expression levels of apoptotic and anti-apoptotic genes were monitored by reverse transcription-polymerase chain reaction (RT-PCR) using the cDNA verso kit with a temperature scale of 42° C. for 30 min for reverse transcription, and 32 cycles of 94° C. for 30 s, 56° C. for 30 s, and 72° C. for 30 s. The RT-PCR was carried out using the primers: […]
(§4) The PCR products were analyzed on 1% agarose gel and visualized by ethidium bromide staining.

BAD = assay: RT-PCR of tumor samples, BAD; format: in vivo, Sprague-Dawley rats; settings: tumors of AMR-Me + DMBA rats
Protocol: as §3, §4

CASP3 = assay: RT-PCR of tumor samples, CASP3; format: in vivo, Sprague-Dawley rats; settings: tumors of AMR-Me + DMBA rats
Protocol: as §3, §4

CASP7 = assay: RT-PCR of tumor samples, CASP7; format: in vivo, Sprague-Dawley rats; settings: tumors of AMR-Me + DMBA rats
Protocol: as §3, §4

PARP = assay: RT-PCR of tumor samples, PARP; format: in vivo, Sprague-Dawley rats; settings: tumors of AMR-Me + DMBA rats
Protocol: as §3, §4

BCL2 = assay: RT-PCR of tumor samples, BCL2; format: in vivo, Sprague-Dawley rats; settings: tumors of AMR-Me + DMBA rats
Protocol: as §3, §4

ER-α = assay: Immunohistochemistry of ER-α in mammary tumors; format: in vivo, Sprague-Dawley rats; settings: low (0.8 mg/kg) or medium (1.2 mg/kg) dose + DMBA
Protocol: as §1

cyclin D1 = assay: Immunohistochemistry of cyclin D1 in mammary tumors; format: in vivo, Sprague-Dawley rats; settings: medium (1.2 mg/kg) or high (1.6 mg/kg) dose + DMBA, vs DMBA control
Protocol: as §1

β-catenin = assay: Immunohistochemistry of β-catenin in mammary tumors; format: in vivo, Sprague-Dawley rats; settings: 0.8 mg/kg or 1.2 mg/kg + DMBA
Protocol: as §1

[8] = set-up: species or system Sprague-Dawley rats; settings: rat, in vivo, 1.6 mg/kg
Protocol: The possible toxicity of high dose (1.6 mg/kg) of AMR-Me was studied by investigating hepatic and renal histopathological characteristics using H&E staining.

[9] = General observations: body weight, food and water intake; format: in vivo, Sprague-Dawley rats
Protocol: The DMBA was dissolved in corn oil.

[10] = mice; cited from earlier work
[11] = tested on: breast cancer MCF-7 cells; settings: in vitro; cited from earlier work
[12] = tested on: DMBA-induced mammary tumorigenesis; assay: Chemoprevention of DMBA-induced mammary tumorigenesis; settings: for No. of rats with tumors/total rats / Total tumor burden / Tumor Incidence / Average tumor weight: + DMBA; for Average tumor weight: mean±SEM
Description: Following an acclimatization period of one week, rats (−43 days of age) were randomly divided into six groups of 7-11 animals in each. […] Two groups (groups A and B) were maintained on the basal diet without any further treatment, whereas the remaining four groups (groups C, D, E and F) were fed with AMR-Me through oral gavage three times a week (Monday-Wednesday-Friday). AMR-Me was mixed in polyethylene glycol (Sigma-Aldrich, St. Louis, Mo.) and administered by gently securing the animal by holding the skin back of its head and delivering the drug slowly via an animal feeding needle (Popper and Sons, Inc., New Hyde Park, N.Y.) attached to a I-ml syringe (Becton Dickinson, Franklin Lakes, N.J.). This technique ensured the accurate oral dosing of the test material. Three doses of AMR-Me were used: 0.8 mg/kg (for group C), 1.2 mg/kg (for group D) and 1.6 mg/kg (for groups E and F). These three doses (low, medium and high) represent 40, 60 and 80% of calculated maximum tolerated dose (MTD) in rats, respectively. The rat MTD was calculated based on the MTD in mice (3 mg/kg/day).
Following two week of aforementioned treatment regimen, at −57 days of age, mammary carcinogenesis was initiated in all animals belonging to groups B, C, D and E by a single administration of the mammary carcinogen, DMBA at 50 mg/kg body weight by gavage. The DMBA was dissolved in corn oil. This dose of DMBA was chosen so that substantial tumor incidence could be produced but not so high as to overwhelm the chemopreventive action of AMR-Me. Oral treatment of rats with AMR-Me in groups C, D, E and F were continued for 16 weeks following the DMBA administration (i.e., a total period of 18 weeks). Food and water intake as well as behavioral patterns were monitored daily and body weights of animals were recorded every alternate week.
Animals were palpated along the milk line twice a week starting 4 weeks following DMBA treatment to detect the presence of mammary tumors. All animals were sacrificed at 16 weeks post-DMBA treatment (i.e., 18 weeks following the start of the experiment).
Following an overnight fast, animals from each group were anesthetized between 09:00 and 11:00 h by intramuscular injection of 40-87 mg/kg ketamine and 5-13 mg/kg xylazine. The skin was dissected out to expose mammary tumors. The tumors (approximated spheres) were separated from mammary gland parenchyma, carefully excised, rinsed with phosphate-buffered saline (pH 7.4) to flush out any blood, blotted dry on a paper towel, weighed, and photographed. Each tumor was measured in two perpendicular directions with a vernier caliper to the nearest mm to obtain an average diameter. The representative tumor tissue as well liver and kidney were harvested and either immediately flash frozen in liquid nitrogen for molecular work or fixed in 4% paraformaldehyde. Later, serial tumor sections (−15-μm thick) were prepared using a microtome. These sections were used for histopathological assessment by hematoxylin and eosin (H&E) staining.

[13] = medium (1.2 mg/kg) or high (1.6 mg/kg) dose + DMBA
[14] = group C: 0.8 mg/kg oral three times a week, 18 weeks
[15] = group D: 1.2 mg/kg oral three times a week, 18 weeks
[16] = group E: 1.6 mg/kg oral three times a week, 18 weeks

CC1(C)CC[C@]2(C(=O)O)CC[C@]3(C)C(=CC[C@@H]4[C@@]5(CO)CCC(=O)C(C)(C)[C@@H]5CC[C@]43C)[C@@H]2C1 [AMR, 25-Hydroxy-3-oxoolean-12-en-28-oic Acid]
anti-neoplastic activity (breast cancer cells; plant-derived compound): relatively weak

COC(=O)[C@]12CCC(C)(C)C[C@H]1C1=CC[C@@H]3[C@@]4(CO)CCC(=O)C(C)(C)[C@@H]4CC[C@@]3(C)[C@]1(C)CC2 [AMR-Me, 25-hydroxy-3-oxoolean-12-en-28-oic Acid Methyl Ester]
proliferation of tumor cells (PCNA-positive cells) ([1]; low dose 0.8 mg/kg + DMBA): marginal reduction in the proliferation of tumor cells
PCNA labeling index (LI) ([1]; medium (1.2 mg/kg) or high (1.6 mg/kg) dose + DMBA, vs DMBA control): statistically significant (P<0.001) decrease
apoptotic index (AI) ([2]; low dose 0.8 mg/kg + DMBA, vs DMBA control): no noticeable difference
apoptotic index (AI) ([2]; medium (1.2 mg/kg) or high (1.6 mg/kg) dose + DMBA, vs DMBA): significant increase (P<0.001)
frequency of Bax-immunopositive cells (Bax [3]; low dose 0.8 mg/kg + DMBA): extremely low
Bax/Bcl-2 ratio (Bax [3]; [13]): elevated the Bax/Bcl-2 ratio in a dose-responsive manner
Bax-positive cells (Bax [3]; medium (1.2 mg/kg) or high (1.6 mg/kg) dose + DMBA, vs DMBA alone): significantly (P<0.001) increased
expression of cytoplasmic Bcl-2 (Bcl-2 [4]; low dose 0.8 mg/kg + DMBA): not altered
Bcl-2-positive cells (Bcl-2 [4]; [13]): significant (P<0.005 or 0.001) reduction
Bax expression (Western blot) (Bax [5]): elevated the Bax expression
Bcl-2 expression (Western blot) (Bcl-2 [6]; high dose 1.6 mg/kg + DMBA): complete abrogation
Bcl-2 expression (Western blot) (Bcl-2 [6]; low or medium dose + DMBA): did not modify Bel-2 expression
BAX mRNA level (RT-PCR) (Bax [7]): up-regulation
BAD mRNA level (RT-PCR) (BAD): up-regulation
CASP3 mRNA level (RT-PCR) (CASP3): up-regulation
CASP7 mRNA level (RT-PCR) (CASP7): up-regulation
PARP mRNA level (RT-PCR) (PARP): up-regulation
BCL2 mRNA level (RT-PCR) (BCL2): down-regulation
intra-tumor expression of ER-α (ER-α): reduced
ratio of ER-α/ER-β (ER-α): concomitant drop
percentage of cyclin D1-positive cells (cyclin D1): significant (P<0.05 or 0.001) decrease
cytosolic β-catenin expression (β-catenin): significant (P<0.001) decrease
nuclear β-catenin expression (β-catenin): significant (P<0.001) decrease
hepatotoxicity (hepatic histopathology) [8]: no hepatotoxicity was observed
nephrotoxicity (renal histopathology) [8]: did not exhibit any nephrotoxicity
body weights among rat groups ([9]; 0.8, 1.2 or 1.6 mg/kg, any time point): No significant difference
food and water intakes ([9]; normal animals, 1.6 mg/kg body weight, 18 weeks): unaltered
inhibition of proliferation of several breast cancer cells, potency (breast cancer cells; relative to the parent compound): greater potency than the parent compound AMR
maximum tolerated dose (MTD) [10]: 3 mg/kg/day
potency against MCF-7 cells, concentrations [11]: down to the nanomolar range
No. of rats with tumors/total rats [12, 14]: 5/8
Total tumor burden [12, 14]: 57.5 g
Tumor Incidence [12, 14]: 62%
Average tumor weight [12, 14]: 11.5 ± 4.9 ^ g
No. of rats with tumors/total rats [12, 15]: 2/7
Total tumor burden [12, 15]: 9.6 g
Tumor Incidence [12, 15]: 28^a %
Average tumor weight [12, 15]: 3.2 ± 1.5^b g
No. of rats with tumors/total rats [12, 16]: 2/7
Total tumor burden [12, 16]: 0.8 g
Tumor Incidence [12, 16]: 28^a %
Average tumor weight [12, 16]: 0.38 ± 0.03^b g
visible mammary tumors in AMR-Me control ([12]; group F: 1.6 mg/kg without DMBA, 18 weeks): no visible mammary tumors
improvement of cellular architecture in tumor tissue (H&E) ([12]; high dose 1.6 mg/kg + DMBA): substantial improvement of cellular architecture
size of tumors ([12]; high dose 1.6 mg/kg + DMBA): striking reduction in size
size of tumors ([12]; low dose 0.8 mg/kg + DMBA): reduced the size of tumors
tumor histopathological features (H&E) ([12]; low dose 0.8 mg/kg + DMBA): did not modify tumor histopathological features
improvement of cellular architecture in tumor tissue (H&E) ([12]; medium dose 1.2 mg/kg + DMBA): moderate
size of tumors ([12]; medium dose 1.2 mg/kg + DMBA): further decrease in the size of tumor
